Species: Rattus norvegicus
Test: DrugMatrix - Regimen: Daily Repeat
Format: toxicity, organism-based, Sprague-Dawley
Design: regimen Daily Repeat, gender Male, age 6-8 weeks
Details: in vivo, po, route oral GAVAGE, vehicle 100 % WATER; for ABSOLUTE BASOPHIL / ABSOLUTE EOSINOPHIL / ABSOLUTE LYMPHOCYTE / ABSOLUTE MONOCYTE / ABSOLUTE SEGMENTED NEUTROPHIL / BASOPHIL / EOSINOPHIL / ERYTHROCYTE COUNT / HEMATOCRIT / HEMOGLOBIN / LEUKOCYTE COUNT / LYMPHOCYTE / MEAN CORPUSCULAR HEMOGLOBIN / MEAN CORPUSCULAR HEMOGLOBIN CONCENTRATION / MEAN CORPUSCULAR VOLUME / MONOCYTE / NEUTROPHIL / NUCLEATED RED BLOOD CELLS / PLATELET COUNT: tissue Blood; for ALANINE AMINOTRANSFERASE / ALBUMIN / ALKALINE PHOSPHATASE / ASPARTATE AMINOTRANSFERASE / BLOOD UREA NITROGEN / CARBON DIOXIDE / CHLORIDE / CHOLESTEROL / CREATINE PHOSPHOKINASE / CREATININE / GLUCOSE / LACTATE DEHYDROGENASE / LIPASE / PHOSPHORUS / POTASSIUM / SODIUM / TOTAL BILIRUBIN / TOTAL PROTEIN / URIC ACID: tissue Plasma
[1] = 0 mg/kg, 72 h, dose level Control, time 3 day
[2] = 0 mg/kg, 120 h, dose level Control, time 5 day
[3] = 56 mg/kg, 72 h, dose level Low, time 3 day

CC[C@H]1OC(=O)[C@H](C)[C@@H](O[C@H]2C[C@@](C)(OC)[C@@H](O)[C@H](C)O2)[C@H](C)[C@@H](O[C@@H]2O[C@H](C)C[C@H](N(C)C)[C@H]2O)[C@](C)(OC)C[C@@H](C)C(=O)[C@H](C)[C@@H](O)[C@]1(C)O [CLARITHROMYCIN]
ABSOLUTE BASOPHIL [1]: 0 CELLS/uL | ABSOLUTE EOSINOPHIL [1]: 91.5 CELLS/uL | ABSOLUTE LYMPHOCYTE [1]: 14108.83 CELLS/uL | ABSOLUTE MONOCYTE [1]: 81 CELLS/uL | ABSOLUTE SEGMENTED NEUTROPHIL [1]: 818.67 CELLS/uL | BASOPHIL [1]: 0% | EOSINOPHIL [1]: 0.67% | ERYTHROCYTE COUNT [1]: 5.56 x10E6/uL | HEMATOCRIT [1]: 34.5% | HEMOGLOBIN [1]: 13.45 G/DL | LEUKOCYTE COUNT [1]: 15.1 x10E3/uL | LYMPHOCYTE [1]: 93% | MEAN CORPUSCULAR HEMOGLOBIN [1]: 24.2 pg | MEAN CORPUSCULAR HEMOGLOBIN CONCENTRATION [1]: 38.98 G/DL | MEAN CORPUSCULAR VOLUME [1]: 62.07 fL | MONOCYTE [1]: 0.5% | NEUTROPHIL [1]: 5.83% | NUCLEATED RED BLOOD CELLS [1]: 0 /100WBC | PLATELET COUNT [1]: 1193.33 x10E3/uL | ALANINE AMINOTRANSFERASE [1]: 60.33 u/L | ALBUMIN [1]: 4 G/DL | ALKALINE PHOSPHATASE [1]: 334.83 u/L | ASPARTATE AMINOTRANSFERASE [1]: 74.5 u/L | BLOOD UREA NITROGEN [1]: 13.5 mg/dL | CARBON DIOXIDE [1]: 30.33 mmol/L | CHLORIDE [1]: 98.33 MEQ/L | CHOLESTEROL [1]: 71.17 mg/dL | CREATINE PHOSPHOKINASE [1]: 212 u/L | CREATININE [1]: 0.21 mg/dL | GLUCOSE [1]: 173.17 mg/dL | LACTATE DEHYDROGENASE [1]: 101.5 u/L | LIPASE [1]: 24.17 u/L | PHOSPHORUS [1]: 10.87 mg/dL | POTASSIUM [1]: 6.06 MEQ/L | SODIUM [1]: 140.58 MEQ/L | TOTAL BILIRUBIN [1]: 0.17 mg/dL | TOTAL PROTEIN [1]: 5.9 G/DL | URIC ACID [1]: 1.23 mg/dL | ABSOLUTE BASOPHIL [2]: 0 CELLS/uL | ABSOLUTE EOSINOPHIL [2]: 34.5 CELLS/uL | ABSOLUTE LYMPHOCYTE [2]: 8181 CELLS/uL | ABSOLUTE MONOCYTE [2]: 82.67 CELLS/uL | ABSOLUTE SEGMENTED NEUTROPHIL [2]: 435.17 CELLS/uL | BASOPHIL [2]: 0% | EOSINOPHIL [2]: 0.5% | ERYTHROCYTE COUNT [2]: 5.31 x10E6/uL | HEMATOCRIT [2]: 33.83% | HEMOGLOBIN [2]: 13.37 G/DL | LEUKOCYTE COUNT [2]: 8.73 x10E3/uL | LYMPHOCYTE [2]: 93.5% | MEAN CORPUSCULAR HEMOGLOBIN [2]: 25.2 pg | MEAN CORPUSCULAR HEMOGLOBIN CONCENTRATION [2]: 39.53 G/DL | MEAN CORPUSCULAR VOLUME [2]: 63.73 fL | MONOCYTE [2]: 1% | NEUTROPHIL [2]: 5% | NUCLEATED RED BLOOD CELLS [2]: 0 /100WBC | PLATELET COUNT [2]: 1057.33 x10E3/uL | ALANINE AMINOTRANSFERASE [2]: 54.33 u/L | ALBUMIN [2]: 4.07 G/DL | ALKALINE PHOSPHATASE [2]: 308.67 u/L | ASPARTATE AMINOTRANSFERASE [2]: 83.17 u/L | BLOOD UREA NITROGEN [2]: 14 mg/dL | CARBON DIOXIDE [2]: 34 mmol/L | CHLORIDE [2]: 98 MEQ/L | CHOLESTEROL [2]: 71.33 mg/dL | CREATINE PHOSPHOKINASE [2]: 266.5 u/L | CREATININE [2]: 0.27 mg/dL | GLUCOSE [2]: 133 mg/dL | LACTATE DEHYDROGENASE [2]: 127 u/L | LIPASE [2]: 11.67 u/L | PHOSPHORUS [2]: 10.6 mg/dL | POTASSIUM [2]: 6.17 MEQ/L | SODIUM [2]: 142.68 MEQ/L | TOTAL BILIRUBIN [2]: 0.15 mg/dL | TOTAL PROTEIN [2]: 6.03 G/DL | URIC ACID [2]: 0.75 mg/dL | ABSOLUTE BASOPHIL [3]: 0 CELLS/uL | ABSOLUTE EOSINOPHIL [3]: 59.33 CELLS/uL | ABSOLUTE LYMPHOCYTE [3]: 13806.33 CELLS/uL | ABSOLUTE MONOCYTE [3]: 0 CELLS/uL | ABSOLUTE SEGMENTED NEUTROPHIL [3]: 1301 CELLS/uL | BASOPHIL [3]: 0% | EOSINOPHIL [3]: 0.33% | ERYTHROCYTE COUNT [3]: 5.56 x10E6/uL | HEMATOCRIT [3]: 35.47% | HEMOGLOBIN [3]: 13.53 G/DL | LEUKOCYTE COUNT [3]: 15.17 x10E3/uL | LYMPHOCYTE [3]: 91.67% | MEAN CORPUSCULAR HEMOGLOBIN [3]: 24.37 pg | MEAN CORPUSCULAR HEMOGLOBIN CONCENTRATION [3]: 38.2 G/DL | MEAN CORPUSCULAR VOLUME [3]: 63.77 fL | MONOCYTE [3]: 0% | NEUTROPHIL [3]: 8% | NUCLEATED RED BLOOD CELLS [3]: 0 /100WBC | PLATELET COUNT [3]: 1156.33 x10E3/uL | ALANINE AMINOTRANSFERASE [3]: 46.33 u/L | ALBUMIN [3]: 4.03 G/DL | ALKALINE PHOSPHATASE [3]: 259.67 u/L | ASPARTATE AMINOTRANSFERASE [3]: 70.67 u/L | BLOOD UREA NITROGEN [3]: 12.33 mg/dL | CARBON DIOXIDE [3]: 30.33 mmol/L | CHLORIDE [3]: 99.67 MEQ/L | CHOLESTEROL [3]: 68.33 mg/dL | CREATINE PHOSPHOKINASE [3]: 185.33 u/L | CREATININE [3]: 0.19 mg/dL | GLUCOSE [3]: 143.67 mg/dL | LACTATE DEHYDROGENASE [3]: 137.33 u/L | LIPASE [3]: 10.67 u/L | PHOSPHORUS [3]: 10.87 mg/dL | POTASSIUM [3]: 6.51 MEQ/L | SODIUM [3]: 141.97 MEQ/L | TOTAL BILIRUBIN [3]: 0.2 mg/dL | TOTAL PROTEIN [3]: 5.93 G/DL | URIC ACID [3]: 1.4 mg/dL
